Here are results for one compound from publication PMC3123319, “Insights into the Regulatory Characteristics of the Mycobacterial Dephosphocoenzyme A Kinase: Implications for the Universal CoA Biosynthesis Pathway” (PLoS ONE, 2011).

As a reminder, the pKi is the Ki on a negative log10 scale, so that one unit is a factor of ten. The low end stands for a high Ki, the high end for a low Ki.

pKi: −log10 of the molar value.

The test deals with T1, dephosphocoenzyme A kinase (CoaE) (Mycobacterium tuberculosis, UniProt P9WPA3).
T1 sequence (P9WPA3 1-407): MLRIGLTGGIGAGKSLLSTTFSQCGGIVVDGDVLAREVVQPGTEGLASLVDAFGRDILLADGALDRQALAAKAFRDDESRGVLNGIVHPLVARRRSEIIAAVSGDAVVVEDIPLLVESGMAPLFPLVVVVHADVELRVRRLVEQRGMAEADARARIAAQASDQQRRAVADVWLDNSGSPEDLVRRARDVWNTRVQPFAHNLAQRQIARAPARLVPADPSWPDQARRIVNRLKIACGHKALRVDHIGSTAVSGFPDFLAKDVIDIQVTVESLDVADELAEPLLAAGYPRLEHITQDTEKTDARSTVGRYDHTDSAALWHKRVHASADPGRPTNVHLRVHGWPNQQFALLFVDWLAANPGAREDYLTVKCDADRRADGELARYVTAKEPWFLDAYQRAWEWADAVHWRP
Briefly: coupled PK-LDH spectrophotometric assay, Dixon plot; supported by tryptophan fluorescence quenching, SEC and limited proteolysis. In kind it is biochemical.

On to `Nc1ccn([C@@H]2O[C@H](COP(=O)(O)OP(=O)(O)OP(=O)(O)O)[C@@H](O)[C@H]2O)c(=O)n1` [CTP], for which the pKi is 4.47.
